Reference: patent publication US20250302982A1, “METHODS OF TREATING CANCER WITH ANTI-TISSUE FACTOR ANTIBODY-DRUG CONJUGATES” (Genmab A/S, priority 2022, published 2025)
“Also recorded” adds a separate entry of the source. Marks after values point to notes of the source that are not given here.

Legend:
human TF = target: T1, human TF (Homo sapiens, UniProt P13726); experiment: Tisotumab binding to HNSCC cell lines by flow cytometry; details: 2 μg/ml
T1 construct: Three VU-SCC cells lines with various levels of TF expression were selected for additional analysis; endogenous in cells; host or cells: HNSCC cell lines VU-SCC-OE, VU-SCC-078, VU-SCC-120
Method: Methods: Three VU-SCC cells lines with various levels of TF expression were selected for additional analysis. It was determined that VU-SCC-OE had TF expression levels similar to that of non-cancerous fibroblasts and VU-SCC-078 had slightly higher expression levels of TF compared to VU-SCC-OE; VU-SCC-120 was a cell line with high levels of TF expression (FIG. 2). These three cell lines were cultured and subsequently assayed for tisotumab binding. Cells were incubated with the anti-human TF monoclonal antibody, (tisotumab, 2 μg/ml, IgG1-1015-011, Genmab) or an isotype control IgG (Genmab IgG1-b12). The PE-conjugated goat (Fab′)2 anti-human IgG secondary antibody (1:50 Jackson, 109-116-098) was applied and the cells were analyzed by flow cytometry.

VU-SCC-OE xenograft = experiment: TV combined with chemoradiotherapy (CRT) in VU-SCC-OE xenograft mice; format: in vivo, nude mice
Method: (§1) Methods: FaDu xenografts were established in nude mice (5-6 mice/group) as described above in Example 3.
(§2) FaDu xenograft mice were treated 24 hour hours prior to CRT (CRT was administered on day 1 and 11) with TV or the isotype control, which was administered on day 0 and 10. VU-SCC-OE xenograft mice were treated 24 hour hours prior to CRT (CRT was administered on day 1 and 8) with TV or the isotype (IgG1-vedotin) control, which was administered on day 0 and 7. For mice receiving CRT, whole body irradiation (2 Gy; Varian TrueBeam™ Linear Accelerator) was applied approximately 4 hours after administering cisplatin (CDDP, 3 mg/kg). Tumor volume was measured as described above, and statistical analysis was performed on the collected data as also described above.

HNSCC cell lines = experiment: Cell Titer-Blue cytotoxicity assay in HNSCC cell lines; format: cell-based, human
Method: Methods: Cells were seeded in 96-wells plates on day 0 (1000-6000 cells/well, depending on the cell line). After overnight culturing, tisotumab vedotin or the negative control isotype IgG1-vedotin (IgG1-c-b12-vc monomethyl auristatin E (MMAE)) was added in increasing concentrations to the different wells. The relative number of viable cells was assessed on day 5 using a Cell Titer-Blue assay (Promega, Leiden, The Netherlands, G8080) according to the protocol from the manufacturer and fluorescence was measured using the GloMax®-Multi Detection System (Promega). Staurosporine (5 μM, Sigma, UCN-01 or 56942) was used as a positive control to induce maximum cell death, and untreated cells were also used as a negative control. After subtraction of background (medium only), the percentages of viable cells were calculated using the following formula: % viable cells=((mean fluorescence test samples−mean fluorescence staurosporine sample)/(mean fluorescence untreated sample−mean fluorescence staurosporine sample))*100. Graphs represent non-linear regression curves of log-transformed antibody concentrations, using Graphpad Prism version 9.1.0 (GraphPad Software, San Diego, CA).

primary keratinocytes = experiment: Cell Titer-Blue cytotoxicity assay in primary keratinocytes; format: cell-based, human; details: low TF expression
Method: Keratinocytes were cultured in serum-free Keratinocyte medium (KSFM, Gibco, 17005-034) supplemented with 0.1% bovine serum albumin (BSA, Biovision), recombinant epidermal growth factor (EGF) (Gibco, 10450-013) and bovine pituitary extract (Gibco, 13028-014). HNSCC cell lines were cultured in Dulbecco's Modified Eagle's Medium (DMEM), containing 5% fetal bovine serum (FBS, Gibco, 10270-106) and 2 mM L-glutamine (Lonza, BE-17-605E). The FaDu cell line was purchased from the ATCC. […]
Methods: Cells were seeded in 96-wells plates on day 0 (1000-6000 cells/well, depending on the cell line). […] The relative number of viable cells was assessed on day 5 using a Cell Titer-Blue assay (Promega, Leiden, The Netherlands, G8080) according to the protocol from the manufacturer and fluorescence was measured using the GloMax®-Multi Detection System (Promega). […] After subtraction of background (medium only), the percentages of viable cells were calculated using the following formula: % viable cells=((mean fluorescence test samples−mean fluorescence staurosporine sample)/(mean fluorescence untreated sample−mean fluorescence staurosporine sample))*100. […]

FaDu xenograft [1] = experiment: TV combined with radiotherapy (RT) in FaDu xenograft mice; format: in vivo, nude mice; details: for Median survival [days]: end of experiment day 112; for Range Survival [days]: end of the experiment is day 112
Method: FaDu xenografts were established in nude mice as described in Example 3. […] For mice subjected to RT, 2 Gy whole body radiotherapy was administered at day 1.

FaDu xenograft [2] = experiment: TV combined with chemoradiotherapy (CRT) in FaDu xenograft mice; format: in vivo, nude mice
Method: as §1, §2

FaDu tumor = experiment: TV monotherapy in FaDu xenograft mice; format: in vivo, nude mice
Method: (§3) Nude mice (female, athymic nu/nu, age 6-8 weeks old, from Envigo, Horst, The Netherlands), were kept in filter top cages under sterile conditions under standardized environmental conditions. The HNSCC cell lines FaDu, VU-SCC-OE or VU-SCC-040 were subcutaneously injected in both flanks (2×10^6 cells per flank). The implanted tumor cells were allowed to grow to an average size of 100 mm^3 (range 40-180 mm^3). The mice were treated intraperitoneally (ip) with tisotumab vedotin or an isotype control (IgG1-b12-c-vcMMAE) (FIG. 6). […] Tumor volume was measured with electronic calipers (V=(L×W×H)×0.5 where V=volume, L=length, W=width, H=height) and calculated as mean of tumor(s) per mouse. Tumors with a start volume below 40 mm^3 and no signs of growth were excluded from the analysis. Tumors from un-treated tumor bearing mice were harvested and embedded in paraffin for analysis of TF expression using IHC analysis as described in the preceding examples. TF expression was detected using anti-CD142-FITC or isotype control (IgG1-FITC) with rabbit anti-FITC (Zymed) and BrightVision Immunohistochemistry (IHC) Detection Kit and visualized with DAB counterstained with Haematoxylin.
(§4) Nude mice were injected with HNSCC cells and xenografts were established as described above in Example 3A. Xenograft mice (5 mice with 8-10 tumors per group) were treated with PBS, 2 and 4 mg/kg tisotumab vedotin, or 4 mg/kg isotype IgG1-vedotin on days 0, 7 and 13 (FaDu) or on days 0, 7 and 14 (VU-SCC-OE and VU-SCC-040) (FIG. 6). Tumor volume was measured as described in the preceding example. Data analysis was performed using Graph Pad Prism version 9.1.0 (GraphPad Software, San Diego, CA). Data are depicted as mean±SD or mean±SEM. Statistical differences were determined using a Kruskal-Wallis test with multiple comparison tests (>2 groups). Improved overall survival was assessed using the Kaplan-Meier method and differences between the groups was assessed by the Log-rank test (Mantel-Cox). p-values<0.05 were considered significant (*p<0.05, **p<0.01,***p<0.001, **** p<0.0001, ns=not significant).

VU-SCC-OE tumor = experiment: TV monotherapy in VU-SCC-OE xenograft mice; format: in vivo, nude mice; details: days 0, 7, 14
Method: as §3
as §4, with “Xenograft mice (5 mice with 8-10 tumors per group) were treated with PBS, 2 and 4 mg/kg tisotumab vedotin, or 4 mg/kg isotype IgG1-vedotin on days 0, 7 and 13 (FaDu) or on days 0, 7 and 14 (VU-SCC-OE and VU-SCC-040) (FIG. 6).” left out

VU-SCC-040 tumor = experiment: TV monotherapy in VU-SCC-040 xenograft mice; format: in vivo, nude mice
Method: as §3
as §4, with “Xenograft mice (5 mice with 8-10 tumors per group) were treated with PBS, 2 and 4 mg/kg tisotumab vedotin, or 4 mg/kg isotype IgG1-vedotin on days 0, 7 and 13 (FaDu) or on days 0, 7 and 14 (VU-SCC-OE and VU-SCC-040) (FIG. 6).” left out

FaDu xenograft [3] = experiment: TV combined with cisplatin (CDDP) in FaDu xenograft mice; details: 2 mg/kg TV + cisplatin 3 mg/kg ip
Method: FaDu xenografts were established in nude mice (6-7 mice/group) as described above in Example 4. Mice were treated with the antibodies on day 0 and 7 and/or on day 1 and 8 with 3 mg/kg intraperitoneal cisplatin (CDDP) chemotherapy (CT) (FIG. 6). TV or control IgG-vedotin (IgG1-V) was administered at day 0. For mice subjected to chemotherapy, cisplatin was administered at day 1. A minimum of 8 tumors were included per group.

T1 sequence (P13726 33-295): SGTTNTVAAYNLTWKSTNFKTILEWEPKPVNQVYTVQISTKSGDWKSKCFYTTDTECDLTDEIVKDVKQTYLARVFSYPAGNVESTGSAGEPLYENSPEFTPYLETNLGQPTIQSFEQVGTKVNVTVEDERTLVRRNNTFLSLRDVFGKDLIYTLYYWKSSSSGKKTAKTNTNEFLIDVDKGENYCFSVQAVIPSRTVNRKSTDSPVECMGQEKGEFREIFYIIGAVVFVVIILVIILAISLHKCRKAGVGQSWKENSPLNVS

## tisotumab
Human TF; VU-SCC-078, intermediate expression of TF
  binding to HNSCC cells (flow cytometry): bound robustly
Human TF; VU-SCC-120, high levels of TF
  binding to HNSCC cells (flow cytometry): bound robustly
Human TF; VU-SCC-OE, lower levels of TF expression
  binding to HNSCC cells (flow cytometry): still capable of binding

## tisotumab vedotin
VU-SCC-OE xenograft; 2 mg/kg TV + CRT
  survival compared to control groups or CRT or TV alone: significantly prolonged survival
  tumor regression: induced tumor regression
VU-SCC-OE xenograft; 2 mg/kg TV alone
  tumor growth compared to control groups (PBS and IgG1-vedotin): some inhibition of tumor growth
HNSCC cell lines; HNSCC cell lines with intermediate and high levels of TF expression
  mean IC50 values: 2.5 to 7 ng/mL
HNSCC cell lines; VU-SCC-OE, low TF expression
  average IC50: above 0.025 μg/ml
HNSCC cell lines; increasing concentrations, viable cells on day 5
  killing of HNSCC cell lines (percent viable cells): efficient and dose-dependent killing
Primary keratinocytes
  average IC50: above 0.025 μg/ml
FaDu xenograft [1]; 1 mg/kg TV alone
  survival compared to control treatment (PBS or IgG-V): did not prolong survival
FaDu xenograft [1]; 2 mg/kg TV + RT, p<0.001
  survival time compared to RT alone: significantly better survival time
FaDu xenograft [1]; TV 1 mg/kg day 0 + RT 2 Gy day 1
  tumor volume on day 7: Decreased tumor volume
FaDu xenograft [1]; TV 2 mg/kg alone, day 0
  tumor burden on day 7: lowest tumor burdens
FaDu xenograft [1]; TV 2 mg/kg day 0 + RT 2 Gy day 1, listed as TV
  tumor burden / tumor volume on day 7: lowest tumor burdens; also recorded: Decreased tumor volume
FaDu xenograft [1]; hTV 1 mg/kg
  Median survival: 10 days
  Range Survival: 8 to 16 days
FaDu xenograft [1]; hTV 1 mg/kg + RT (2 Gy)
  Median survival: 21 days
  Range Survival: 14 to 21 days
FaDu xenograft [1]; hTV 2 mg/kg
  Median survival: 69.5 days
  Range Survival [days]: 28-112* days
FaDu xenograft [1]; hTV 2 mg/kg + RT (2 Gy), listed as TV
  Median survival [days]: median not reached
FaDu xenograft [1]; hTV 2 mg/kg + RT (2 Gy), listed as hTV
  Median survival [days]: Undefined
FaDu xenograft [1]; hTV 2 mg/kg + RT (2 Gy)
  Range Survival [days]: 21-112* days
FaDu xenograft [2]; 2 mg/kg TV + CRT
  overall survival (Kaplan-Meier) compared to control groups, CRT or TV alone: significant increase in overall survival
  tumor size at day 9 after first treatment compared to IgG1-vedotin + CRT: significant reduction in tumor size
FaDu xenograft [2]; 2 mg/kg TV alone, day 0 and 10
  tumor growth compared to IgG1-vedotin control group: reduced tumor growth
FaDu tumor; 2 mg/kg ip, days 0, 7, 13
  tumor growth compared to control groups: significant inhibition of tumor growth
  tumor regression: tumor regression was observed after 3 treatments
FaDu tumor; 2 mg/kg, last treatment on day 13
  time after start of initial treatment from which tumor regrowth was visible: ≥ 30 days
FaDu tumor; 4 mg/kg ip, after the first treatment
  tumor regression: significant and persistent tumor regression
FaDu tumor; 4 mg/kg ip, days 0, 7, 13
  recurrence of tumor growth until end of experiment (day 76): without recurrence of tumor growth
  time to complete tumor regression in all mice: ≤ 30 days
FaDu tumor; tisotumab vedotin treatment groups, day 7
  tumor size on day 7 compared to isotype control or PBS: considerably lower tumor size
VU-SCC-OE tumor; 1 mg/kg
  tumor growth: rapid tumor growth
VU-SCC-OE tumor; 2 mg/kg
  tumor growth: inhibition of tumor growth
VU-SCC-OE tumor; 4 mg/kg TV
  tumor growth: inhibition of tumor growth
VU-SCC-040 tumor; 1 mg/kg monotherapy
  tumor growth compared to control groups: did not inhibit tumor growth
VU-SCC-040 tumor; 2 mg/kg
  tumor growth compared to control groups: inhibition of tumor growth was observed
VU-SCC-040 tumor; 4 mg/kg
  tumor growth compared to control groups: inhibition of tumor growth was observed
VU-SCC-040 tumor; 4 mg/kg, after 1 treatment
  tumor growth at day 7 compared to isotype control: reduced tumor growth
FaDu xenograft [3]
  survival compared to either treatment alone: improved survival
  tumor load on day 7 compared to either treatment alone: significantly reduced tumor load
